Laboratory results taken from patent publication US8039532B2, “Heterocyclic compound, ultraviolet absorbent and composition containing the same” (Fujifilm Corporation, priority 2007, dated 2011).

Columns and labels:
Assay type in all cases: physicochemical
[1] = UV spectrum of sample solutions in ethyl acetate (Example 38); conditions: ethyl acetate solution, 1 cm quartz cell
Description: The absorption maximum wavelength and the half width specified in the present invention can be determined easily by a skilled person in the art. The measuring methods are described, for example, in Chemical Society of Japan Ed., “Experimental Chemistry Lecture, Chapter 7, Spectroscopy II”, 4th Ed., (Maruzen, 1992), p. 180 to 186. Specifically, they are determined by dissolving a sample in a suitable solvent and measuring the spectrum in a spectrophotometer by using two quartz or glass cells for the sample and control. For example, the solvent for use is required to be capable of dissolving the sample, have no absorption in the measurement wavelength range, have smaller interaction with the solute molecule, and have relatively low volatility. Any solvent may be used, as long as it satisfies the conditions above. In the present invention, the measurement is made by using ethyl acetate (EtOAc) as the solvent.
The absorption maximum wavelength and the half width of the dyes in the present invention are determined by preparing a solution in ethyl acetate as the solvent at a concentration of approximately 5×10^−5 mol·dm^−3 and by measurement while using a quartz cell having an optical path length of 10 mm.
The spectral half width is described, for example, in Chemical Society of Japan Ed., “Experimental Chemistry Lecture, Chapter 3 Basic Operation III”, 4th Ed., (Maruzen, 1991), p. 154. The half width is described in the literature above by using wave number as abscissa, but the half width is plotted against wavelength in the present invention and thus, the unit of the half value width is nm. Specifically, it is defined as the width of the absorption band at an absorbance of ½ of that at the absorption maximum wavelength and used as an indicator of the absorption spectral shape.
One mg of the Exemplified Compound (1) was dissolved in 100 ml of ethyl acetate, to give a sample solution. Similarly, sample solutions of Exemplified Compounds (2), (11), (12), (24), (81), (82), (87) and (88), respectively, were prepared. In addition, two mg of the comparative compound 1 was dissolved in 100 ml of ethyl acetate, to give a sample solution. Similarly, sample solutions of the comparative compounds 2 (the exemplified compound VIII described in JP-B-49-11155), 11 and 12, respectively, were also prepared. The UV spectrum of each sample solution was determined in a 1 cm quartz cell by using Spectrophotometer UV-3600 (product name) manufactured by Shimadzu Corporation. Based on the thus-obtained spectrum chart, were calculated the maximum absorption wavelength, the molar extinction coefficient (ε) at the maximum absorption wavelength and the half width (a width of absorption band corresponding to a half extinction at the maximum absorption wavelength).

[2] = Degree of coloring of UV agent-containing polyethylene terephthalate films (Example 43); set-up: key to Colored (visual): ∘: Not colored; Δ: Slightly colored; x: Distinctly colored; conditions: PET film 50 μm; for absorbance at 420 nm / absorbance at 440 nm / absorbance at 460 nm: quantity giving 1% at 400 nm; for Colored (visual): visual examination; for absorbance at 400 nm: quantity adjusted so that value at 400 nm became 1%
Description: To 15 g of polyethylene terephthalate, the exemplified compounds (81) and (82) were added, respectively, in a quantity such that absorbance at 400 nm became 1% at the time of forming a film with a thickness of 50 μm. After fusion mixing at 265° C., UV agent-containing polymer films (401) and (402) were prepared by cooling and stretching. Further, UV agent-containing polymer films (403) and (404) were prepared by mixing and thin film-making in the same manner as the above films, except that a comparative compound Za and the abovementioned comparative compound 12 were used in place of the exemplified compounds.
A degree of coloring in each of the prepared samples was evaluated by measuring absorbance of the sample at 420 nm 440 nm and 460 nm, and also by examining them visually.

[3] = Light fastness of ethyl acetate solutions under xenon lamp irradiation (Example 39); conditions: ethyl acetate solution, xenon lamp with UV filter removed, 170,000 lux, one week; transmittance at maximum absorption wavelength
Description: Was dissolved 5 mg of the exemplified compound (1) in 100 mL of ethyl acetate and then the resulting solution was diluted with ethyl acetate so that absorbance became the range of from 0.95 to 1.05. Similarly, sample solutions of Exemplified Compounds (2), (11), (12), (24), (81) and (82) and comparative compounds A and B, respectively, were prepared. The absorbance of each sample solution was determined in a 1 cm quartz cell by using Spectrophotometer UV-3600 (product name) manufactured by Shimadzu Corporation. The cell containing the sample solution was photoirradiated by a xenon lamp with its UV filter removed at an illuminance of 170,000 lux, and the amount of each ultraviolet absorbent remaining after irradiation for one week was determined. The residual amount was calculated according to the following Formula: Residual amount (%)=100×(100−Transmittance after irradiation)/(100−Transmittance before irradiation)
The transmittance is a value determined at the maximum absorption wavelength of each compound.

Compound	Half width (nm) [1] [nm]	ε, molar extinction coefficient at the maximum absorption wavelength [1]	λmax (nm), maximum absorption wavelength [1] [nm]	coloring of the film (in words) [2]	absorbance at 420 nm [2] [%]	absorbance at 440 nm [2] [%]	absorbance at 460 nm [2] [%]	Colored (visual) [2]	absorbance at 400 nm [2] [%]	Residual amount (%) [3] [%]
CCCCC(CC)C(=O)Oc1ccc(OC(=O)C(CC)CCCC)c2c1SC(=C(C#N)C#N)S2 (centres unmarked) [Comparative compound 1]	45	24000	369	–	–	–	–	–	–	–
CCCCCCCCCCCCOc1ccc(OCCCCCCCCCCCC)c2c1SC(=C(C#N)C#N)S2 [Comparative compound 2]	46	23000	363	–	–	–	–	–	–	–

Further lines, results first:

Half width (nm) [1] [nm]	ε, molar extinction coefficient at the maximum absorption wavelength [1]	λmax (nm), maximum absorption wavelength [1] [nm]	coloring of the film (in words) [2]	absorbance at 420 nm [2] [%]	absorbance at 440 nm [2] [%]	absorbance at 460 nm [2] [%]	Colored (visual) [2]	absorbance at 400 nm [2] [%]	Residual amount (%) [3] [%]	Compound
39	28000	360	coloring was also observed	65	72	78	Δ to x	1	–	CCCCC(CC)COc1ccc(OCC(CC)CCCC)c2c1SC(=C(C#N)C(=O)OCC)S2 (centres unmarked) [Comparative compound 12]
–	–	–	–	–	–	–	–	–	76	COc1ccc(C(=O)c2ccc(OC)cc2O)c(O)c1 [Comparative compound A]
–	–	–	–	–	–	–	–	–	38	COc1ccc(C(=O)CC(=O)c2ccc(C(C)(C)C)cc2)cc1 [Comparative compound B]
–	–	–	more colored yellow	45	65	85	x	1	–	CC(C)(C)CC(C)(C)c1cc(Cc2cc(C(C)(C)CC(C)(C)C)cc(-n3nc4ccccc4n3)c2O)c(O)c(-n2nc3ccccc3n2)c1 [Za]
